# pIC50: −log10 of the molar value. Read-outs that look alike come from different tables or passages of the source.
# Key:
# [1] = molecular target: T1, cloned human 5-HT1A receptors (Homo sapiens, UniProt P08908); assay: Inhibition of 3H-5-CT binding to human 5-HT1A receptors; settings: cloned human 5-HT1A receptors in transfected HeLa cells (HA7), 15 minutes at 37° C., pH 7.7
# T1 construct: expressed in transfected cells; host or cells: HeLa cells (HA7)
# T1 sequence (P08908 1-422): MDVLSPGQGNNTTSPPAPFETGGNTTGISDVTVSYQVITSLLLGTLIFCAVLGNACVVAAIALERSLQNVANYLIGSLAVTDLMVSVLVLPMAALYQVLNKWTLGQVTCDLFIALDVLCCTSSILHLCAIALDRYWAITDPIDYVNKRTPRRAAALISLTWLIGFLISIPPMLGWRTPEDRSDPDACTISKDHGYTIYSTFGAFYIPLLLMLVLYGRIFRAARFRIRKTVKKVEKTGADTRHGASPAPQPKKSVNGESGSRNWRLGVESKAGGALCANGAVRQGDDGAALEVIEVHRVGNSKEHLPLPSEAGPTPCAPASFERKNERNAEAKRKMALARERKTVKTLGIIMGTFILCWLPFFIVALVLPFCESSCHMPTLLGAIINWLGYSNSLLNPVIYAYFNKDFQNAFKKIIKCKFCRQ
# Experimental: The affinity of the compounds of the invention to 5-HT1A receptors was determined by measuring the inhibition of binding of a radioactive ligand at 5-HT1A receptors as described in the following test:
# Inhibition of ^3H-5-CT Binding to Human 5HT1A Receptors
# By this method the inhibition by drugs of the binding of the 5-HT1A agonist ^3H-5-carboxamido tryptamine (^3H-5-CT) to cloned human 5-HT1A receptors stably expressed in transfected HeLa cells (HA7) (Fargin, A. et al, J. Biol. Chem., 1989, 264, 14848) is determined in vitro. The assay was performed as a modification of the method described by Harrington, M. A. et al, J. Pharmacol. Exp. Ther., 1994, 268, 1098. Human 5-HT1A receptors (40 μg of cell homogenate) were incubated for 15 minutes at 37° C. in 50 mM Tris buffer at pH 7.7 in the presence of ^3H-5-CT. Non-specific binding was determined by including 10 μM of metergoline. The reaction was terminated by rapid filtration through Unifilter GF/B filters on a Tomtec Cell Harvester. Filters were counted in a Packard Top Counter.
# [2] = molecular target: T2, Serotonin reuptake (whole rat brain synaptosomes) (Rattus norvegicus, UniProt P31652); assay: Inhibition of 3H-5-HT uptake into rat brain synaptosomes; assay type: biochemical
# T2 construct: from tissue; host or cells: whole rat brain synaptosomes
# Experimental: Inhibition of ^3H-5-HT Uptake Into Rat Brain Synaptosomes
# Using this method the ability of drugs to inhibit the accumulation of ^3H-5-HT into whole rat brain synaptosomes is determined in vitro.
# T2 sequence (P31652 whole entry): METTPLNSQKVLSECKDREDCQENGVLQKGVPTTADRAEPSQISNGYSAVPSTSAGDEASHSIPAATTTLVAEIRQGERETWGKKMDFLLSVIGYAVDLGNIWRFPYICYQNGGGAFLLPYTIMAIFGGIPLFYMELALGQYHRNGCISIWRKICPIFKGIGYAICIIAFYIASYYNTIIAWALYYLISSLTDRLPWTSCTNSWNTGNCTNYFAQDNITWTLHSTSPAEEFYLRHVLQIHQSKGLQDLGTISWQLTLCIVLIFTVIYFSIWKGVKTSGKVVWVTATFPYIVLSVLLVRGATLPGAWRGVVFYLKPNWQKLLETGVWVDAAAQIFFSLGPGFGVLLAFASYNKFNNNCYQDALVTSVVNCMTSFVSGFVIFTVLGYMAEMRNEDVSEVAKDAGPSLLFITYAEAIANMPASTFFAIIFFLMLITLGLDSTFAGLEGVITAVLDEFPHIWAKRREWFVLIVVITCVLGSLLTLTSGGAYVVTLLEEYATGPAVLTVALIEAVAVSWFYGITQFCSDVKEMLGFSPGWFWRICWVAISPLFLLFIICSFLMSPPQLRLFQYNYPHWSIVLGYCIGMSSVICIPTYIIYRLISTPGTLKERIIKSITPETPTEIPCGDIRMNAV
"pIC50 ([2]; 3H-5-HT accumulation into whole rat brain synaptosomes, in vitro, read-out: Inhibition of Serotonin reuptake IC50)",SMILES,pIC50 [1],pIC50 [2],melting point [°C]
,"OCc1cc(N2CCN(CCc3c[nH]c4ccc(Br)cc34)CC2)c2cc[nH]c2c1 [Compound 3c, 1-(2-(5-Bromo-1H-indol-3-yl)ethyl)-4-(6-hydroxymethyl-1H-indol-4-yl)piperazine]",6.00,7.34,163 to 165
,"OCc1cc(N2CCN(CCc3c[nH]c4cc(Cl)ccc34)CC2)c2cc[nH]c2c1 [Compound 3b, 1-(2-(6-Chloro-1H-indol-3-yl)ethyl)-4-(6-hydroxymethyl-1H-indol-4-yl)piperazine]",6.92,7.48,194 to 196
7.66,"N#Cc1c[nH]c2cccc(N3CCN(CCc4coc5ccccc45)CC3)c12 [Compound 4p, 1-(2-(3-Benzofuranyl)ethyl)-4-(3-cyano-1H-indol-4-yl)piperazine]",8.37,,
,"Cc1ccc2c(CCN3CCN(c4cccc5[nH]ccc45)CC3)coc2c1 [Compound 4u, 1-(1H-Indol-4-yl)-4-(2-(6-methyl-3-benzofuranyl)ethyl)piperazine]",8.15,7.03,
,"Clc1ccc2c(CCN3CC=C(c4cccc5[nH]ccc45)CC3)c[nH]c2c1 [Compound 2g, 1-(2-(6-Chloro-1H-indol-3-yl)ethyl)-4-(1H-indol-4-yl)-1,2,3,6-tetrahydropyridine]",8.55,7.66,

# — patent publication US6391882B1, “4,5,6 and 7-indole and indoline derivatitives, their preparation and use” (H. Lundbeck A/S, priority 1998, dated 2002)
